Results on 14 compounds are retold here after patent US9255088B2, “Premature-termination-codons readthrough compounds” (The Regents of the University of California, priority 2010, dated 2016).

For experiment [1], the system named is ATMs1981 autophosphorylation in AT153LA cells (TGA). Nature of the experiment: Flow cytometry ATMs1981 autophosphorylation (FC-ATM) in AT153LA cells. For FCATMs1981: key: the positive results on various assays are also summarized and labeled as '+'. Type of experiment: cell-based, human. Also on record: FC-ATM (Delta-FI, 30 μM): unit not given here. To be noted: for FCATMs1981: summary of positive results. As to the method: FC-SMC1 assay was performed as recently described (Nahas et al., 2009). FC-ATM-Ser1981 assay was based on Honda's assay (Honda et al., 2009, Leukemia. 23:409-414) with modifications. In brief, cells were resuspended in PBS and radiated for 10 Gy. After 1 h, the cells were fixed and permeabilized using the FIX & PERM cell permeabilization kit (Invitrogen). The cells were then incubated with 1 μl of mouse ATM-Ser1981 antibody (Cell Signaling Technology) for 2 h at room temperature. Cells were washed and resuspended in 100 μl PBS with Alexa Fluor 488 anti-mouse IgG (Invitrogen) for 45 min. Cells were next washed and resuspended in PBS with 0.2% paraformaldehyde and analyzed using a FACSCalibur (BD).
Studies on readthrough activity of RTC#13 derivatives as measured by FC-ATMS 1981 were performed according to the procedures provided in Example 1.
These two series, 7 and 9, were tested for readthrough activity using an assay in which the ATM protein kinase activity was measured using a flow cytometry-based ATMs1981 autophosphorylation assay (FC-ATM) (Nahas, S. A; et al., Clin. Chem. 2009, 55, 463-72). […] An increased Delta-FI indicates the restoration of ATM kinase activity by a compound.
(§1) These two series, 13 and 15, were again tested for readthrough activity using the assay in which the ATM protein kinase activity was measured by functional flow cytometry (FC-ATM) (Table 4 and FIG. 12). A second assay, irradiation (1R)-induced ATMs1981 nuclear foci formation (IRIF-ATM), was also used to confirm the readthrough activity of these compounds (Table 4 and FIG. 13). Table 3 summarizes the data for the analogues 13 and 15 (at 30 μM), in which the groups R, R′, and X were varied. More detailed data are reported in FIG. 5 (for FC-ATM assay), and in FIG. 6 (for IRIF-ATM assay). […] Thus, the pyrimidinedione unit serves as a good structural replacement for the 2-imino and 2-thioxo thiazolidin-4-one units.
Background: In flow cytometry, cells or beads pass a laser one at a time.

Experiment [2] deals with plasmid-TAT51: ATM region 5 fragment with nonsense (PTC) mutation c.5623C→T (TGA C). Nature of the experiment: PTT-ELISA readthrough assay, plasmid-TAT51 (TGA C). Conditions: summary of positive results; plasmid not stated. In general terms: In an ELISA, binding on a coated surface is turned into a signal by an enzyme label.
The test system of experiment [3] is ATM-Ser1981 foci in AT153LA cells (TGA A). As to the kind of experiment: Irradiation-induced ATM-Ser1981 foci (IRIF) in AT153LA cells. For IRIF (ATMs1981): key: the positive results on various assays are also summarized and labeled as '+'. In kind it is cell-based, human. Conditions: for IR-induced ATMs1981 foci formation, readthrough activity: A-T153LA cells (TGA), FIG. 13; for IRIF-ATM (%) (30 μM): Table 4, IR-induced ATMs1981 nuclear foci formation. As to the method:
To evaluate the function of RTC-induced ATM protein, we measured irradiation-induced foci (IRIF) formation of ATM-Ser1981 in the same ATI53LA cells (TGA A). […] The maximum IRIF induction achieved in A-T cells by 10 μM RTC#13 was ˜40% of wild-type level. As a positive readthrough control, 144 μM of G418 (100 μg/ml) was used to treat cells. Our previous studies had shown that, at this concentration, […] induced a maximum level of ATMs1981 IRIF (Lai et al., 2004).
Immunostaining of nuclear foci of ATM-Ser1981 was performed as previously reported (Du et al., 2007). In brief, after being treated with compound for 4 d, cells were irradiated with 2 Gy and incubated at 37° C. for 30 min. The cells were dropped onto coverslips, fixed with 4% paraformaldehyde, and permeabilized. Coverslips were blocked for 1 h and incubated with mouse anti-ATM pSer1981 for 1 h (1:500; Rockland Immunochemicals, Inc). After a second blocking, cells were stained with FITC-conjugated anti-mouse IgG (1:150; Jackson ImmunoResearch Laboratories) for 1 h and mounted onto slides.
Studies on IR-induced ATMs1981 foci formation by RTC#13 and derivatives 13a, 13b, 13d, 13e, 13f, 13g, 13h, 13i, 13j, and 13k in A-T153LA cells (TGA) were performed according to the procedures provided in Example 1.
as §1

Experiment [4] relates to dystrophin in mdx myotubes (TAA). As to the kind of experiment: Dystrophin expression in mdx myotubes. In kind it is cell-based, mouse. To be noted: FIG. 21. As to the method: To investigate the ability of RTC#13 and #14 to readthrough a PTC mutation in genes other than ATM, we used mdx myotubes. The mdx mouse has been widely used as a model for Duchenne muscular dystrophy. It carries a C to T transition in exon 23 of the dystrophin gene that creates a premature stop codon (TAA), resulting in an absence of dystrophin protein (Sicinski, et al., 1989, Science. 244:1578-1580). […] Muscle progenitor cells isolated from mdx mice were induced to differentiate for 24 h before addition of gentamicin or compounds RTC#13 and #14. Myotube cultures were exposed to compounds for 72 h and then analyzed for dystrophin by Western blotting. […] We next used immunoprecipitation to increase the sensitivity of the assay (FIG. 8). […] Results were consistent in multiple experiments performed.
Cells were prepared and treated with RTCs for 3 d. Dystrophin proteins were detected by Western blot analysis using immunoprecipitation. Wild-type cells were used in the experiment to localize dystrophin protein. Gentamicin was used as a positive readthrough control. […] Results were consistent in three independent experiments.
Cells were derived from limb muscle of neonatal mdx and C57 mice, as previously described (Bertoni and Rando, 2002, Hum. Gene Ther. 13:707-718). For growth, cells were plated on dishes coated with 5 µg/ml laminin (Invitrogen) and maintained in growth medium consisting of Ham's F10 nutrient mixture (Mediatech, Inc.) supplemented with 20% fetal bovine serum, penicillin, and streptomycin. Cell differentiation was induced by maintaining the cells in low serum medium (differentiation medium) consisting of DME supplemented with 2% horse serum, penicillin, and streptomycin. Myoblasts were plated in wells of 6-well dishes and were allowed to differentiate for 24 h before adding the compounds. Media was replaced every 24 h with fresh differentiation media containing the compounds. Cells were lysed 96 h after induction of differentiation (72 h after addition of the compounds). Total protein was determined and dystrophin immunoblot analysis was performed as previously described (Sicinski et al., 1989). 250 μg of total protein from each sample was immunoprecipitated using a monoclonal antibody directed toward the rod domain (MANDYS—8; 1:40; Sigma-Aldrich) of the dystrophin protein and detected by Western blotting (Barton-Davis et al., 1999, J. Clin. Invest. 104:375-381; Bertoni and Rando, 2002).
Muscle cells were induced to differentiate to allow the formation of myotubes and synthesis of dystrophin mRNA. Compounds were added 24 hrs after induction of differentiation by direct addition into the media. The media was replaced every 24 hrs with fresh differentiation media containing the appropriate concentration of compounds. Myotubes were harvested 72 hrs later (96 hrs after induction of differentiation) and analyzed for dystrophin expression by immunoblot analysis (FIG. 14).
Cultures were analyzed for dystrophin expression by immunohistochemistry.
In the experiments shown in FIG. 21, the activity of two of the analogs of RTC#13 termed RTC#BZ6 and RTC#BZ16 was investigated in myotube cultures isolated from mdx mice. Compounds were added to the differentiation media 24 hrs after induction of differentiation and replaced every 24 hrs by changing the media with new fresh media containing the appropriate concentration of RTC#13, RTC#BZ6 or RTC#BZ16. […] No dystrophin expression was detected in cells treated with vehicle only at a final concentration of 10 μM.

[5] abbreviates: Table 2, compounds 7, 30 µM, change in fluorescence intensity before and after ionizing radiation.
Setting [6] is: Table 4, compounds 13 and 15, 30 μM.

With `O=C1NC(=S)S/C1=C\c1ccc(-c2ccccc2[N+](=O)[O-])o1` [Compound 7b, (Z)-5-((5-(2-nitrophenyl)furan-2-yl)methylene)-2-thioxothiazolidin-4-one], the “FC-ATM (Delta-FI, 30 μM)” value in experiment [1] (setting [5]) is given as “negative”. Besides, in experiment [2], the PTT-ELISA entry is given as “+”.
For `COc1ccccc1-c1ccc(/C=C2\SC(=N)NC2=O)o1` [Compound 7e, (Z)-2-imino-5-((5-(2-methoxyphenyl)furan-2-yl)methylene)thiazolidin-4-one] the same measures were “negative” and “+”.
As to `O=C1NC(=S)S/C1=C\c1ccc(-c2cccc(F)c2)o1` [Compound 7q, (Z)-5-((5-(3-fluorophenyl)furan-2-yl)methylene)-2-thioxothiazolidin-4-one], in experiment [1], the “FC-ATM readthrough activity” value was “the best of this group” and the FCATMs1981 entry was “+”. Further, the “FC-ATM (Delta-FI, 30 μM)” value in experiment [1] (setting [5]) stood at 3.44. In experiment [2], the PTT-ELISA result is “+”.
`N=C1NC(=O)/C(=C/c2ccc(-c3ccccc3)o2)S1` [Compound 7a, (Z)-2-imino-5-((5-phenylfuran-2-yl)methylene)thiazolidin-4-one]: in experiment [1] (setting [5]), the “FC-ATM (Delta-FI, 30 μM)” value was “negative”. Further, the PTT-ELISA entry in experiment [2] is listed as “+”.
For the compound `O=C1NC(=S)S/C1=C\c1ccc(-c2ccccc2Cl)o1` [Compound 7m, (Z)-5-((5-(2-chlorophenyl)furan-2-yl)methylene)-2-thioxothiazolidin-4-one], in experiment [1], the “FC-ATM readthrough activity” value is “the best of this group” and the FCATMs1981 entry was “+”. In experiment [1] (setting [5]), the “FC-ATM (Delta-FI, 30 μM)” value is recorded as 3.55. Also, in experiment [2], the PTT-ELISA entry is listed as “+”.
As to `O=c1ccn(Cc2ccc(-c3ccccc3[N+](=O)[O-])o2)c(=O)[nH]1` [Compound 13a, 1-((5-(2-nitrophenyl)furan-2-yl)methyl)pyrimidine-2,4(1H,3H)-dione], in experiment [3], the “IR-induced ATMs1981 foci formation, readthrough activity” value (“IR-induced ATMs1981 foci formation” for short) is recorded as “statistically significant readthrough activity” and the “IRIF-ATM (%) (30 μM)” value is 10.67%. Further, the “FC-ATM (Delta-FI, 30 μM)” value in experiment [1] (setting [6]) was 4.94. Besides, in experiment [1], the FCATMs1981 result is reported as “+”. Besides, in experiment [4], the “concentration giving the highest level of readthrough activity” value worked out at 5 µM and the “dystrophin expression in mdx myotube cultures” value was “effective”.
On to `O=c1ccn(Cc2ccc(-c3ccccc3F)o2)c(=O)[nH]1` [Compound 13g, 1-((5-(2-fluorophenyl)furan-2-yl)methyl)pyrimidine-2,4(1H,3H)-dione], for which, in experiment [3], the “IR-induced ATMs1981 foci formation” value is listed as “all RTC#13 derivatives show statistically significant readthrough activity except for Derivative 13g” and the “IRIF-ATM (%) (30 μM)” value is on record as 20%. The “FC-ATM (Delta-FI, 30 μM)” value in experiment [1] (setting [6]) is reported as 5.43. Also, the FCATMs1981 result in experiment [1] is reported as “+”.
Taken in the same sequence, the figures for `O=c1[nH]c(=O)n(Cc2ccc(-c3ccccc3[N+](=O)[O-])o2)cc1F` [Compound 13b, 5-fluoro-1-((5-(2-nitrophenyl)furan-2-yl)methyl)pyrimidine-2,4(1H,3H)-dione] were “statistically significant readthrough activity”, 14.5%, 2.08 and “+”.
`N=c1ccn(Cc2ccc(-c3ccccc3[N+](=O)[O-])o2)c(=O)[nH]1` [Compound 15a, 4-imino-1-((5-(2-nitrophenyl)furan-2-yl)methyl)-3,4-dihydropyrimidin-2(1H)-one]: in experiment [3], the “IRIF-ATM (%) (30 μM)” value is reported as “negative”. Moreover, the “FC-ATM (Delta-FI, 30 μM)” value in experiment [1] (setting [6]) is on record as “negative”.
Regarding `O=C1NC(=S)S/C1=C\c1ccc(-c2ccccc2F)o1` [Compound 7n, (Z)-5-((5-(2-fluorophenyl)furan-2-yl)methylene)-2-thioxothiazolidin-4-one], the “FC-ATM (Delta-FI, 30 μM)” value in experiment [1] (setting [5]) turned out to be 2.86. In addition, the FCATMs1981 result in experiment [1] was “+”. Also, the PTT-ELISA result in experiment [2] is “+”.
Turning to `N=C1NC(=O)/C(=C/c2ccc(-c3cccc(F)c3)o2)S1` [Compound 7j, (Z)-5-((5-(3-fluorophenyl)furan-2-yl)methylene)-2-iminothiazolidin-4-one], the “FC-ATM (Delta-FI, 30 μM)” value in experiment [1] (setting [5]) is on record as “negative”. In addition, the PTT-ELISA entry in experiment [2] is given as “+”.
For the compound `Cc1cn(Cc2ccc(-c3ccccc3F)o2)c(=O)[nH]c1=O` [Compound 13h, 1-((5-(2-fluorophenyl)furan-2-yl)methyl)-5-methylpyrimidine-2,4(1H,3H)-dione], in experiment [3], the “IR-induced ATMs1981 foci formation” value was “statistically significant readthrough activity” and the “IRIF-ATM (%) (30 μM)” value came out at 9.6%. Further, the “IRIF (ATMs1981)” value in experiment [3] (summary of positive results) was “+”. Moreover, the “FC-ATM (Delta-FI, 30 μM)” value in experiment [1] (setting [6]) is given as 6.16. In addition, the FCATMs1981 entry in experiment [1] was “+”.
As to `N=C1NC(=O)/C(=C/c2ccc(-c3ccccc3C(F)(F)F)o2)S1` [Compound 7d, (Z)-2-imino-5-((5-(2-(trifluoromethyl)phenyl)furan-2-yl)methylene)thiazolidin-4-one], the “FC-ATM (Delta-FI, 30 μM)” value in experiment [1] (setting [5]) is “negative”. In addition, in experiment [2], the PTT-ELISA entry is given as “+”.
For `N=C1NC(=O)/C(=C/c2ccc(-c3ccccc3Cl)o2)S1` [Compound 7f, (Z)-5-((5-(2-chlorophenyl)furan-2-yl)methylene)-2-iminothiazolidin-4-one] the same measures were “negative” and “+”.
